Experiments:
A549 cells [1] = assay: Uptake and Retention Assay of 125I-CLR1404; type: cell-based, human; conditions: 24 hours, 0.588-2.156 μM, serum free media
Method: The Uptake and Retention Assay was preformed as described previously. Briefly, A549 human NSCLC cells were plated at a density of 150,000 cells/ml in 6-well plates.
Cells were then allowed to adhere overnight. All plates were then treated with the indicated mass of either ^125I-CLR1404 with or without ^127I-CLR1401 as indicated by the experimental parameters.
Cells were incubated in the presence of drug for 24 hrs prior to collection. At 24 hrs post treatment, the media was removed and the cells were washed once with 1 ml of ice cold 1×PBS+1% BSA. The cells were then removed from the plate by trypsinization with 1 ml of 1× Trypsin 1×PBS solution and split into 2 samples of 500 μl each. Both sets of sample were pelleted by centrifugation for 30 seconds at 2000×g at room temperature. The supernatant was removed and discarded.
One pellet for each sample set was resuspended in 200 μl of 1×PBS (Tube 1, Sample 1), and the other pellet was resuspened in 100% EtOH (Tube 2, Sample 1). A 100 μl sample from Tube 1 was taken for evaluation of DNA content in order to determine cell number (data was generated using absorbance at 260 nm in a microplate reader). A 10 μl sample from Tube 2 was taken for evaluation of radioactivity content using a gamma counter. […] All treatments were preformed in Serum Free media. […]

A549 cells [2] = assay: Cell growth inhibition by MTT assay; type: cell-based, human
Method: 2. Cell Growth Inhibition by ^127I-CLR1401. • 1) Growth inhibition induced by ^127I-CLR1401 was determined by MTT(3-(4,5-dimethylthiazol-2-yl)-2,5-diphenyl […] bromide) assay. MTT is a pale yellow substrate that is cleaved by living cells to yield a dark blue formazan product.
Briefly, A549 cells were plated at a density of 200,000 cells per well in a six well plate and allowed to adhere overnight.
The cells were then treated with varying concentrations of ^127I-CLR1401 (0.0078, 0.392, 0.784, 1.568, 3.137, 4.705, 7.84, 39.2, 78.4 μM) in triplicate and then collected for the MTT assay at the indicated time points. Cells were then incubated with 0.5 mg/ml MTT in 1×PBS for 3 hours at 37° C. with 5% CO2 in air.
Absorbance was measured at 540 nm using a Synergy HT microplate reader. The absorbance value at 540 nm is directly proportional to the number of viable cells present.

active Akt (pAkt, S473) [3] = assay: Inhibition of Akt activation (pAkt Ser473 sandwich ELISA) in A549 cells; type: cell-based; conditions: Homo sapiens
Method: A549 cells, obtained from American Type Culture Collection (ATCC), are a human non-small cell lung cancer cell line. A549 cells have wild-type functional PTEN.
(§1) A549 and PC-3 cells were plated at a density of 200,000 cells per ml.
(§2) All treatments were preformed in triplicate.
(§3) A549 and PC-3 cells are treated with ^127I-CLR1401 for 24 hours. • 0, 3, 5, 10 μM of ^127I-CLR1401 • Protein was isolated from treated cells. • The level of activated Akt was determined by examining the phosphorylated (active) form at Ser473 by enzyme linked immunosorbent assay (ELISA). • PathScan Phospho-Akt1 (Ser473) Sandwich ELISA Kit (Cell Signaling #7160). • ELISA controls: • Negative Control: A549 and PC-3 cells treated with 50 μM LY294,002 for 24 hrs. LY294,002 is a specific cell permeable phosphatidylinositol 3-kinase (PI3K) inhibitor that inhibits the activation of Akt by affecting the amount of phosphatidylinositol(3,4,5) trisphosphate produced by PI3K. • Positive Control: A549 and PC-3 cells stimulated with 10 μg/ml Insulin for 24 hrs. • Negative Control: A549 in serum free media. • 1) The ELISA was preformed per the manufacturer's instructions. Briefly, 100 μg of protein from the cell lysates were incubated in the pre-coated 96-well plate overnight at 4° C. The wells were then washed 4 times with 1XWash Buffer (also provided). Then incubated with the primary Akt antibody for 2 hours at 37° C. with 5% CO2 in air. After the primary incubation the plate was then washed 4 times with 1XWash Buffer and incubated with the HRP-linked secondary antibody for 1 hour at 37° C. with 5% CO2 in air. The plate was then washed 4 times with 1× Wash Buffer and developed using the TMB substrate provided. TMB substrate (tetramethylbenzidine) is a colormetric substrate used in the ELISA assay. TMB (3,3″,5,5″-tetramethylbenzidine) is a chromogen that yields a blue color when oxidized with hydrogen peroxide (catalyzed by HRP) with major absorbances at 370 nm and 652 nm. The color then changes to yellow with the addition of sulfuric or phosphoric acid with maximum absorbance at 450 nm. it is used for the detection of target proteins that have been bound to an antibody that contains a Horseradish Peroxidase tag. • After the 10 minute incubation at 37° C. the reaction was stopped by the addition of stop buffer (also provided). The absorbance was then measured at 450 nm using a Synergy HT microplate reader (BioTek). Data are reported as absorbance at 450 nm.

active Akt (pAkt, S473) [4] = assay: Inhibition of Akt activation (pAkt Ser473 sandwich ELISA) in PC-3 cells; type: cell-based; conditions: Homo sapiens
Method: PC-3 cells, obtained from American Type Culture Collection (ATCC), are a human prostate carcinoma cell line. PC-3 cells have a homozygous deletion of PTEN.
as §1, §2, §3

[5] = 3 μM, 24 hours, read-out: Percent Inhibition of Akt
[6] = 5 μM, 24 hours, read-out: Percent Inhibition of Akt
[7] = 10 μM, 24 hours, read-out: Percent Inhibition of Akt

| IC50 (A549 cells [2]; Homo sapiens, A549 cells, MTT, read-out: 50% inhibitory concentration for cell growth) [µM] | IC50 (active Akt (pAkt, S473) [3]) [µM] | IC50 (active Akt (pAkt, S473) [4]) [µM] | Compound | uptake and retention of 125I-CLR1404 with increasing mass dose of 125I-CLR1404 (A549 cells [1]) | effect on the growth of A549 cells (A549 cells [2]; low doses, FIG. 5A) | inhibition at 3 µM (active Akt (pAkt, S473) [3]; [5]) [%] | inhibition at 5 µM (active Akt (pAkt, S473) [3]; [6]) [%] | inhibition at 10 µM (active Akt (pAkt, S473) [3]; [7]) [%] | inhibition at 3 µM (active Akt (pAkt, S473) [4]; [5]) [%] | inhibition at 5 µM (active Akt (pAkt, S473) [4]; [6]) [%] | inhibition at 10 µM (active Akt (pAkt, S473) [4]; [7]) [%] |
| --- | --- | --- | --- | --- | --- | --- | --- | --- | --- | --- | --- |
| – | – | – | 18-(p-Iodophenyl)octadecyl phosphocholine [^125I-CLR1404] | distinct increase in the amount of compound taken up and retained | – | – | – | – | – | – | – |
| 4.5 | 5.9 | 5 | C[N+](C)(C)CCOP(=O)([O-])OCCCCCCCCCCCCCCCCCCc1ccc(I)cc1 [^127I-CLR1401, 18-(p-Iodophenyl)octadecyl phosphocholine] | – | no significant effect | 26 | 42 | 85 | 21 | 61 | 97 |
